This is an account of results in article PMC3670929, “Zn(II)-Chlorido Complexes of Phytohormone Kinetin and Its Derivatives Modulate Expression of Inflammatory Mediators in THP-1 Cells” (PLoS ONE, 2013).

For the experiment, the system named is IL-1β. Description: LPS-induced IL-1β secretion in THP-1 macrophage-like cells (ELISA). The following applies: complexes 5 µM, prednisone 1 µM, 1 h pre-treatment, 24 h after LPS. In kind it is cell-based, human. As to the method:
To determine the influence of the tested complexes on the TNF-α and IL-1β secretions and MMPs activity, macrophage-like cells derived from the THP-1 cell line were used. The cells were cultivated as above, but were split into 24-well microtitre plates to get a concentration of 100 000 cells/mL (1 mL/well) and the differentiation to macrophages was induced by phorbol myristate acetate (PMA) as described previously. Differentiated macrophages were pre-treated for 1 h with 5 µM solutions of the tested complexes or 1 µM prednisone dissolved in DMSO [the final DMSO concentration was 0.1% (v/v)] and with the 0.1% (v/v) DMSO solution itself (the experimental group called vehicle); the given concentrations of the compounds lack the cytotoxic effect. The inflammatory response was triggered by adding 1 µg/mL Escherichia coli 0111:B4 lipopolysaccharide (LPS) (Sigma-Aldrich, Germany) dissolved in water to pre-treated macrophages, control cells were without the LPS treatment. Each experiment was performed in triplicate. Macrophages, which were pre-treated with the tested compounds for 1 h, were incubated with LPS for the next 24 h. Then, the medium was collected and the concentrations of TNF-α and IL-1β were measured by an Instant ELISA kit (eBioscience, Austria) according to the manufacturer’s manual.

Structures are written as SMILES.

For `C[C@]12C=CC(=O)C=C1CC[C@@H]1[C@@H]2C(=O)C[C@@]2(C)[C@H]1CC[C@]2(O)C(=O)CO` [prednisone, reference compound], the “decrease of IL-1β secretion, factor in comparison with the vehicle-treated cells” value stood at 2.42 times.
